# Reference: PubChem BioAssay (NCI)
#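 Protocol summary: plate cells (96-well), add compound at 5 concentrations, incubate 48 h, interpolate endpoints linearly. GI50 is the concentration that inhibits growth by half. TGI is the concentration that stops growth completely.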
# Tests used:
# Experiment in all cases: growth of human tumour cells (NCI), 48 h
# [1] = test system: CCRF-CEM leukemia
# [2] = test system: SNB-19 CNS
# [3] = test system: A498 renal
# [4] = test system: UACC-257 melanoma
# [5] = test system: SN12C renal
# [6] = test system: SF-539 CNS
# [7] = test system: SR leukemia
# [8] = test system: DU-145 prostate
# [9] = test system: SF-295 CNS
# [10] = test system: MDA-MB-231 breast
# [11] = test system: SK-MEL-5 melanoma
# [12] = test system: RXF 393 renal
# [13] = test system: 786-0 renal
# [14] = test system: OVCAR-8 ovarian
# [15] = test system: RPMI-8226 leukemia
# [16] = test system: COLO 205 colon
# [17] = test system: NCI/ADR-RES ovarian
# [18] = test system: SF-268 CNS
# [19] = test system: SK-OV-3 ovarian
# [20] = test system: TK-10 renal
# [21] = test system: OVCAR-5 ovarian
# [22] = test system: HL-60(TB) leukemia
# [23] = test system: ACHN renal
# [24] = test system: MALME-3M melanoma
# [25] = test system: K-562 leukemia
# [26] = test system: EKVX NSCLC
# [27] = test system: MDA-MB-435
# [28] = test system: CAKI-1 renal
# [29] = test system: NCI-H522 lung
# [30] = test system: MCF7 breast
# [31] = test system: NCI-H460 lung
# [32] = test system: M14 melanoma
# [33] = test system: HCC-2998 colon
# [34] = test system: U251 CNS
# [35] = test system: HCT-15 colon
# [36] = test system: KM12 colon
# [37] = test system: T-47D breast
# [38] = test system: OVCAR-4 ovarian
# [39] = test system: HS 578T breast
# [40] = test system: SK-MEL-28 melanoma
# [41] = test system: BT-549 breast
# [42] = test system: UACC-62 melanoma
# [43] = test system: A549 NSCLC
# [44] = test system: HOP-62 NSCLC
# [45] = test system: NCI-H226 lung
# [46] = test system: PC-3 prostate
# [47] = test system: SW-620 colon
# [48] = test system: LOX IMVI melanoma
# [49] = test system: SK-MEL-2 melanoma
# [50] = test system: MOLT-4 leukemia
# [51] = test system: OVCAR-3 ovarian
# [52] = test system: IGROV1 ovarian
# [53] = test system: SNB-75 CNS
# [54] = test system: HCT-116 colon
# [55] = test system: NCI-H23 lung
# [56] = test system: UO-31 renal
# [57] = test system: HT29 colon
smiles,measurement,setting,value
ClCc1ccccc1Cn1cnc2c(Cl)nc(Cl)nc21,GI50,[1],31.3 nM
same,TGI,[1],93.9 nM
same,GI50,[2],1040 nM
same,TGI,[2],2240 nM
same,GI50,[3],2050 nM
same,TGI,[3],4 µM
same,GI50,[4],1900 nM
same,TGI,[4],4 µM
same,GI50,[5],362 nM
same,TGI,[5],1020 nM
same,GI50,[6],170 nM
same,TGI,[6],467 nM
same,GI50,[7],1770 nM
same,TGI,[7],4.93 µM
same,GI50,[8],207 nM
same,TGI,[8],743 nM
same,GI50,[9],1580 nM
same,TGI,[9],3.11 µM
same,TGI,[10],295 nM
same,GI50,[11],104 nM
same,TGI,[11],501 nM
same,GI50,[12],1460 nM
same,TGI,[12],3.01 µM
same,GI50,[13],167 nM
same,TGI,[13],634 nM
same,GI50,[14],1440 nM
same,TGI,[14],2980 nM
same,GI50,[15],139 nM
same,TGI,[15],501 nM
same,GI50,[16],163 nM
same,TGI,[16],362 nM
same,GI50,[17],552 nM
same,TGI,[17],1330 nM
same,GI50,[18],115 nM
same,TGI,[18],556 nM
same,GI50,[19],1950 nM
same,TGI,[19],3.7 µM
same,GI50,[20],1020 nM
same,TGI,[20],2490 nM
same,GI50,[21],471 nM
same,TGI,[21],1210 nM
same,GI50,[22],181 nM
same,TGI,[22],1350 nM
same,GI50,[23],78.5 nM
same,TGI,[23],316 nM
same,GI50,[24],1220 nM
same,TGI,[24],3.59 µM
same,GI50,[25],189 nM
same,TGI,[25],1940 nM
same,GI50,[26],332 nM
same,TGI,[26],811 nM
same,GI50,[27],1640 nM
same,TGI,[27],3.27 µM
same,GI50,[28],728 nM
same,TGI,[28],1590 nM
same,GI50,[29],964 nM
same,TGI,[29],2600 nM
same,GI50,[30],118 nM
same,TGI,[30],> 100 µM
same,GI50,[31],2290 nM
same,TGI,[31],7.15 µM
same,GI50,[32],453 nM
same,TGI,[32],1070 nM
same,GI50,[33],315 nM
same,TGI,[33],1320 nM
same,GI50,[34],222 nM
same,TGI,[34],602 nM
same,TGI,[35],139 nM
same,GI50,[36],1480 nM
same,TGI,[36],2950 nM
same,GI50,[37],1990 nM
same,TGI,[37],5.46 µM
same,GI50,[38],1030 nM
same,TGI,[38],2550 nM
same,GI50,[39],1190 nM
same,TGI,[39],3.55 µM
same,GI50,[40],942 nM
same,TGI,[40],2480 nM
same,GI50,[41],460 nM
same,TGI,[41],1500 nM
same,GI50,[42],408 nM
same,TGI,[42],865 nM
same,GI50,[43],2820 nM
same,TGI,[43],8.8 µM
same,GI50,[44],1380 nM
same,TGI,[44],2780 nM
same,GI50,[45],603 nM
same,TGI,[45],1590 nM
same,GI50,[46],425 nM
same,TGI,[46],1610 nM
same,GI50,[47],< 39.2 nM
same,TGI,[47],64.7 nM
same,GI50,[48],< 39.5 nM
same,TGI,[48],169 nM
same,GI50,[49],2250 nM
same,TGI,[49],4.72 µM
same,GI50,[50],574 nM
same,TGI,[50],1590 nM
same,GI50,[51],547 nM
same,TGI,[51],1170 nM
same,GI50,[52],996 nM
same,TGI,[52],2530 nM
same,GI50,[53],892 nM
same,TGI,[53],2140 nM
same,GI50,[54],60.5 nM
same,TGI,[54],188 nM
same,GI50,[55],485 nM
same,TGI,[55],1020 nM
same,GI50,[56],379 nM
same,TGI,[56],1440 nM
Cc1cc2c(c(S(=O)(=O)c3ccc(Cl)cc3[N+](=O)[O-])c1)NCCC2,TGI,[2],> 100000 nM
same,TGI,[3],> 100 µM
same,TGI,[5],> 100000 nM
same,TGI,[6],> 100000 nM
same,TGI,[7],> 100 µM
same,TGI,[8],> 100000 nM
same,TGI,[9],> 100 µM
same,TGI,[10],> 100000 nM
same,TGI,[11],> 100000 nM
same,TGI,[12],> 100 µM
same,TGI,[13],> 100000 nM
same,TGI,[14],> 100000 nM
same,TGI,[15],> 100000 nM
same,TGI,[16],> 100000 nM
same,TGI,[17],> 100000 nM
same,TGI,[18],> 100000 nM
same,TGI,[19],> 100 µM
same,TGI,[57],> 100 µM
same,TGI,[20],> 100000 nM
same,TGI,[21],> 100000 nM
same,TGI,[23],> 100000 nM
same,TGI,[24],> 100 µM
same,TGI,[26],> 100000 nM
same,TGI,[27],> 100 µM
same,TGI,[29],> 100000 nM
same,TGI,[30],> 100 µM
same,TGI,[31],> 100 µM
same,TGI,[32],> 100000 nM
same,TGI,[33],> 100000 nM
same,TGI,[34],> 100000 nM
same,TGI,[35],> 100000 nM
same,TGI,[36],> 100000 nM
same,TGI,[37],> 100 µM
same,TGI,[38],> 100000 nM
same,TGI,[39],> 100 µM
same,TGI,[40],> 100000 nM
same,TGI,[41],> 100000 nM
same,TGI,[42],> 100000 nM
same,TGI,[43],> 100 µM
same,TGI,[44],> 100000 nM
same,TGI,[45],> 100000 nM
same,TGI,[46],> 100000 nM
same,TGI,[47],> 100000 nM
same,TGI,[48],> 100000 nM
same,TGI,[49],> 100 µM
same,TGI,[51],> 100000 nM
same,TGI,[52],> 100000 nM
same,TGI,[53],> 100000 nM
same,TGI,[55],> 100000 nM
same,TGI,[56],> 100000 nM
